Laboratory results from patent US20090186900A1, “COMPOUND” (priority 2006, published 2009).

Tests used:
[1] = tested on: rats; conditions: cited from earlier work
[2] = biological target: T1, rat liver E1-STS (Rattus norvegicus, UniProt P15589); conditions: administered either orally or subcutaneously; cited from earlier work
T1 construct: from tissue; host or cells: rat liver
T1 sequence (P15589 20-577): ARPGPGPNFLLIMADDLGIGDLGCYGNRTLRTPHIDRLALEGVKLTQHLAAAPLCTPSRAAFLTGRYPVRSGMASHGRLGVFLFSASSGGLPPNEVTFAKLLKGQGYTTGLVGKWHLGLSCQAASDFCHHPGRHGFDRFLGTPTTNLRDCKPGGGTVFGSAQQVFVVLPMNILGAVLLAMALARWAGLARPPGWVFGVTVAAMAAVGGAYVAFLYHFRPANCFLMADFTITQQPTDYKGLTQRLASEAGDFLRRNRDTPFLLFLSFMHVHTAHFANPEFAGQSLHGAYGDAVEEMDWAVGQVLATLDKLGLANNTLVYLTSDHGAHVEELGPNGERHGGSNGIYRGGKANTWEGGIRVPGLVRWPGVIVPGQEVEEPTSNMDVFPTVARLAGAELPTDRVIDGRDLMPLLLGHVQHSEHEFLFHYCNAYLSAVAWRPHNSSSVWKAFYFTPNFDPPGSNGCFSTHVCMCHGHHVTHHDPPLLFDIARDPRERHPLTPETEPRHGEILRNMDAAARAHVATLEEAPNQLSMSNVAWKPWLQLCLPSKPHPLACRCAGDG

[3] = biological target: T2, DHA-STS (Rattus norvegicus, UniProt P15589); conditions: administered either orally or subcutaneously; cited from earlier work
T2 construct: from tissue; host or cells: rat liver
T2 sequence (P15589 20-577): T1 sequence (P15589 20-577)

[4] = biological target: T3, E1-STS (Homo sapiens, UniProt P08842); conditions: intact MCF-7 cells, at 0.1 mM; cited from earlier work
T3 construct: endogenous in cells; host or cells: MCF-7 human breast cancer cells
T3 sequence (P08842 22-583): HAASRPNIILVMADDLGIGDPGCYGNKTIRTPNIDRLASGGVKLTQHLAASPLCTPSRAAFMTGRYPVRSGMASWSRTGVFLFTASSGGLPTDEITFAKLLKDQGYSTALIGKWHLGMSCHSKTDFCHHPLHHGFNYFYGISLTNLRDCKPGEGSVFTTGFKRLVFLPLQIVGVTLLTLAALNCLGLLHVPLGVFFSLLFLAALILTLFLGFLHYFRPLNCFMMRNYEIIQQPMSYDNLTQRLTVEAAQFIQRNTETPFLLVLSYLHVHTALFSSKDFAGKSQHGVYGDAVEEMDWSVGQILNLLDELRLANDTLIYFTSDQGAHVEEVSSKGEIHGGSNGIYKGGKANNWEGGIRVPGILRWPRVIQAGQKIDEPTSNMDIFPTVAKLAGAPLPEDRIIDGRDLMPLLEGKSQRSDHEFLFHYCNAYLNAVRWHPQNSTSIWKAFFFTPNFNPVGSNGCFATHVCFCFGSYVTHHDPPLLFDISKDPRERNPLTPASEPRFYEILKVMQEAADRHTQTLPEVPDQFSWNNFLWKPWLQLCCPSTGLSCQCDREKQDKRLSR

Structure (SMILES) | melting point | also measured
CCc1cc(-c2ccc(C(=O)CCC(=O)NCCO)cc2)ccc1O [Compound 37, 4-(3′-Ethyl-4′-hydroxy-biphenyl)-4-oxo-N-(2-hydroxyethyl)-butyramide] | > 110 °C (dec.) | 
CCc1cc(-c2ccc(C(C)=O)cc2)ccc1OC [Compound 38, 1-(3′-Ethyl-4′-methoxy-biphenyl-4-yl)-ethanone] | 69 to 72 °C | 
CCc1cc(-c2ccc(-c3cc[nH]n3)cc2)ccc1OC [Compound 44, 3-(3′-Ethyl-4′-methoxy-biphenyl-4-yl)-1H-pyrazole] | 164 to 168 °C | 
CCc1cc(-c2ccc(-c3ccn(C)n3)cc2)ccc1OC [Compound 45, 3-(3′-Ethyl-4′-methoxy-biphenyl-4-yl)-1-methyl-1H-pyrazole] | 167 to 170 °C | 
CCc1cc(-c2ccc(-c3ccnn3C)cc2)ccc1OC [Compound 46, 5-(3′-Ethyl-4′-methoxy-biphenyl-4-yl)-1-methyl-1H-pyrazole] | 97 to 100 °C | 
CCc1cc(-c2ccc(-c3ccn(CC(=O)OC)n3)cc2)ccc1OC [Compound 48, [3-(3′-Ethyl-4′-methoxy-biphenyl-4-yl)-pyrazol-1-yl]-acetic Acid Methyl Ester] | 116 to 120 °C | 
CCc1cc(-c2ccc(-c3cc(CCC(=O)NCc4cccnc4)[nH]n3)cc2)ccc1O [Compound 66, 3-[5-(3′-Ethyl-4′-hydroxy-biphenyl-4-yl)-2H-pyrazol-3-yl]-N-pyridin-3-ylmethyl-propionamide] | 210 to 214 °C | 
O=C(CCC(=O)c1ccc(Oc2ccc(O)cc2)cc1)NCc1cccnc1 [Compound 118, 4-(4-(4-Hydroxyphenoxy)phenyl)-4-oxo-N-((pyridin-3-yl)methyl)butanamide] | > 191 °C (dec.) | 
CC(=O)c1ccc(Oc2ccc(O)cc2)cc1 [Compound 129, 1-(4-(4-Hydroxyphenoxy)phenyl)ethanone] | 159 to 161 °C | 
CC(=O)c1ccc(Oc2cccnc2)cc1 [Compound 135, 1-(4-(Pyridin-3-yloxy)phenyl)ethanone] | 45 to 50 °C | 
CCc1cc(Oc2ccc(C(C)=O)cc2)ccc1OC [Compound 140, 1-(4-(3-Ethyl-4-methoxyphenoxy)phenyl)ethanone] | 53 to 56 °C | 
C[C@]12CC[C@@H]3c4ccc(OS(N)(=O)=O)cc4CC[C@H]3[C@@H]1CCC2=O [EMATE, oestrone-3-sulphamate] |  | oral uterotrophic activity relative to oestradiol [1]: 100 times; inhibition of rat liver E1-STS activity [2]: 99%; inhibition of rat liver DHA-STS activity [3]: 99%; inhibition of E1-STS activity [4]: more than 99%
